Measurements from PubChem BioAssay AID330 (DTP/NCI, 2004).
Where “and” joins values, the source holds several entries; their conditions need not be identical. Identical values can stand only once. Toxic doses and inconclusive results are not listed. Rule for the calls: active = survival T/C of 150% or more; inactive = T/C below 125% in these data.

System: P388 leukemia ip, CD2F1 mice, survival T/C
Assay: NCI In Vivo Anticancer Drug Screen. Data for tumor model P388 Leukemia (intraperitoneal) in CD2F1 (CDF1) mice
Details: endpoint: median survival time, higher = longer survival
Outline: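 Mice carrying the transplanted tumor received test compound or vehicle. Survival was recorded in each group, and the value is the treated-group measurement divided by that of the vehicle-treated control group.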

[1] = dose: 60.0 mg/kg/injection, schedule: Q01DX005 (ip), vehicle: saline with Tween-80
[2] = dose: 120.0 mg/kg/injection, schedule: Q01DX005 (ip), vehicle: saline with Tween-80
[3] = dose: 100.0 mg/kg/injection, schedule: Q01DX009 (ip), vehicle: saline with Tween-80
[4] = dose: 50.0 mg/kg/injection, schedule: Q01DX005 (ip), vehicle: Klucel (hydroxypropylcellulose) (HPC)
[5] = dose: 100.0 mg/kg/injection, schedule: Q01DX005 (ip), vehicle: Klucel (hydroxypropylcellulose) (HPC)
[6] = dose: 200.0 mg/kg/injection, schedule: Q01DX005 (ip), vehicle: Klucel (hydroxypropylcellulose) (HPC)
[7] = dose: 50.0 mg/kg/injection, schedule: Q01DX009 (ip), vehicle: Klucel (hydroxypropylcellulose) (HPC)
[8] = dose: 100.0 mg/kg/injection, schedule: Q01DX009 (ip), vehicle: Klucel (hydroxypropylcellulose) (HPC)
[9] = dose: 200.0 mg/kg/injection, schedule: Q01DX009 (ip), vehicle: Klucel (hydroxypropylcellulose) (HPC)
[10] = dose: 6.25 mg/kg/injection, schedule: Q01DX005 (ip), vehicle: saline with Tween-80
[11] = dose: 12.5 mg/kg/injection, schedule: Q01DX005 (ip), vehicle: saline with Tween-80
[12] = dose: 100.0 mg/kg/injection, schedule: Q01DX005 (ip), vehicle: saline with Tween-80

Measured: T/C

CCCCC(CCC)(CCN)CCCC
inactive: dose: 3.0 mg/kg/injection, schedule: Q01DX009 (ip), vehicle: saline 95 % of control | dose: 6.0 mg/kg/injection, schedule: Q01DX009 (ip), vehicle: saline 100 % of control | dose: 12.0 mg/kg/injection, schedule: Q01DX009 (ip), vehicle: saline 104 % of control

CC(C)(C)C(N)=S
inactive: dose: 50.0 mg/kg/injection, schedule: Q01DX005 (ip), vehicle: saline 103 % of control | dose: 100.0 mg/kg/injection, schedule: Q01DX005 (ip), vehicle: saline 101 % of control | dose: 200.0 mg/kg/injection, schedule: Q01DX005 (ip), vehicle: saline 101 % of control

COC(=O)C1=NC(=N)N=C(C(=O)OC)C12C(=O)Cc1ccccc12 (stereo not given)
inactive: [1] 103 % of control | [2] 100 % of control

O=C1OC2C(O1)C1(c3ccccc3)C(=O)C2(c2ccccc2)C(c2ccccc2)=C1c1ccccc1 (stereo not given)
inactive: dose: 6.25 mg/kg/injection, schedule: Q01DX009 (ip), vehicle: saline with Tween-80 107 % of control and 96 % of control | dose: 12.5 mg/kg/injection, schedule: Q01DX009 (ip), vehicle: saline with Tween-80 106 % of control and 94 % of control | dose: 25.0 mg/kg/injection, schedule: Q01DX009 (ip), vehicle: saline with Tween-80 101 % of control and 96 % of control | dose: 50.0 mg/kg/injection, schedule: Q01DX009 (ip), vehicle: saline with Tween-80 98 % of control and 105 % of control | [3] 89 % of control

CN(C)CCCNC(=O)c1ccc2c(c1)C(=O)c1ccccc1C2=O
inactive: dose: 100.0 mg/kg/injection, schedule: Q04DX003 (ip), vehicle: water 107 % of control | dose: 200.0 mg/kg/injection, schedule: Q04DX003 (ip), vehicle: water 115 % of control

CN(C)CS/C(=N\C(O)C(Cl)(Cl)Cl)NC(O)C(Cl)(Cl)Cl (stereo not given)
inactive: [4] 97 % of control | [5] 99 % of control | [6] 99 % of control

NOCc1csc(N)n1
inactive: dose: 75.0 mg/kg/injection, schedule: Q01DX009 (ip), vehicle: saline 91 % of control | dose: 150.0 mg/kg/injection, schedule: Q01DX009 (ip), vehicle: saline 91 % of control | dose: 300.0 mg/kg/injection, schedule: Q01DX009 (ip), vehicle: saline 91 % of control

O=C(CC1(O)C(=O)Nc2ccccc21)c1ccccn1 (stereo not given)
inactive: [7] 102 % of control | [8] 97 % of control | [9] 100 % of control

C1CCNCC1.COc1ccccc1C(=O)[CH-]C(=O)C(F)(F)F.COc1ccccc1C(=O)[CH-]C(=O)C(F)(F)F.COc1ccccc1C(=O)[CH-]C(=O)C(F)(F)F.COc1ccccc1C(=O)[CH-]C(=O)C(F)(F)F.[Eu+3]
inactive: [7] 94 % of control | [9] 91 % of control

Cc1cccc(-c2cc(Cl)c3cc(S(=O)(=O)F)ccc3n2)c1
inactive: [3] 100 % of control | dose: 100.0 mg/kg/injection, schedule: Q04DX003 (ip), vehicle: saline with Tween-80 100 % of control | dose: 200.0 mg/kg/injection, schedule: Q01DX009 (ip), vehicle: saline with Tween-80 108 % of control | dose: 200.0 mg/kg/injection, schedule: Q04DX003 (ip), vehicle: saline with Tween-80 100 % of control | dose: 400.0 mg/kg/injection, schedule: Q01DX009 (ip), vehicle: saline with Tween-80 100 % of control | dose: 400.0 mg/kg/injection, schedule: Q04DX003 (ip), vehicle: saline with Tween-80 109 % of control

Cc1cc(C)n2[nH]c(=O)cc2n1
inactive: dose: 25.0 mg/kg/injection, schedule: Q01DX009 (ip), vehicle: suspension in saline 99 % of control | dose: 50.0 mg/kg/injection, schedule: Q01DX009 (ip), vehicle: suspension in saline 97 % of control | dose: 100.0 mg/kg/injection, schedule: Q01DX009 (ip), vehicle: suspension in saline 97 % of control | dose: 200.0 mg/kg/injection, schedule: Q01DX009 (ip), vehicle: suspension in saline 98 % of control

CCOc1ccc(-n2c(=O)c(N=Nc3ccccc3Cl)c(O)n(-c3ccc(Br)cc3)c2=S)cc1
inactive: dose: 100.0 mg/kg/injection, schedule: Q04DX002 (ip), vehicle: saline with Tween-80 90 % of control | dose: 200.0 mg/kg/injection, schedule: Q04DX002 (ip), vehicle: saline with Tween-80 94 % of control | dose: 400.0 mg/kg/injection, schedule: Q04DX002 (ip), vehicle: saline with Tween-80 87 % of control

Clc1cccc(Cl)c1C(Nc1cnccn1)Nc1cnccn1
inactive: dose: 25.0 mg/kg/injection, schedule: Q01DX005 (ip), vehicle: Klucel (hydroxypropylcellulose) (HPC) 101 % of control and 104 % of control | [4] 101 % of control (2×) and 116 % of control | [5] 106 % of control and 113 % of control

CCN(CC)c1ccc(N=Nc2ccc(C)cc2)cc1
inactive: dose: 100.0 mg/kg/injection, schedule: Q01DX009 (ip), vehicle: saline 89 % of control | dose: 200.0 mg/kg/injection, schedule: Q01DX009 (ip), vehicle: saline 103 % of control | dose: 400.0 mg/kg/injection, schedule: Q01DX009 (ip), vehicle: saline 90 % of control

C(=N[C@H]1CCCC[C@H]1N=Cc1ccc[nH]1)c1ccc[nH]1
inactive: [10] 99 % of control | [11] 101 % of control | dose: 25.0 mg/kg/injection, schedule: Q01DX005 (ip), vehicle: saline with Tween-80 100 % of control | [12] 86 % of control

O=C1CCC(=O)N(CNc2cccc(Cc3cccc(NCN4CC(=O)CCC4=O)c3)c2)C1
inactive: [1] 91 % of control | [2] 91 % of control | dose: 240.0 mg/kg/injection, schedule: Q01DX005 (ip), vehicle: saline with Tween-80 89 % of control

CCCN1c2c3c(O)c4c(O)c(C)c5c(c4c2O)C(=O)C(C)(O/C=C/C(OC)C(C)C(OC(C)=O)C(C)C(O)C(C)C(O)C(C)/C=C/C=C(/C)C(=O)N3C1C)O5 (stereo not given)
inactive: dose: 25.0 mg/kg/injection, schedule: Q01DX009 (ip), vehicle: Klucel (hydroxypropylcellulose) (HPC) 96 % of control | [7] 101 % of control | [8] 93 % of control | [9] 90 % of control

CC(=O)Oc1c(C)c(C)c2c(c1C)C(I)CC(C)(CCC(C)CCC(C)CCC(C)C)O2 (stereo not given)
inactive: dose: 12.5 mg/kg/injection, schedule: Q01DX009 (ip), vehicle: saline + Tween-80 + alcohol 103 % of control | dose: 25.0 mg/kg/injection, schedule: Q01DX009 (ip), vehicle: saline + Tween-80 + alcohol 113 % of control | dose: 50.0 mg/kg/injection, schedule: Q01DX009 (ip), vehicle: saline + Tween-80 + alcohol 107 % of control | dose: 100.0 mg/kg/injection, schedule: Q01DX009 (ip), vehicle: saline + Tween-80 + alcohol 106 % of control | dose: 200.0 mg/kg/injection, schedule: Q01DX009 (ip), vehicle: saline + Tween-80 + alcohol 119 % of control | dose: 400.0 mg/kg/injection, schedule: Q01DX009 (ip), vehicle: saline + Tween-80 + alcohol 87 % of control

CC1(C)COC(c2ccc(Br)cc2)=N1
inactive: dose: 25.0 mg/kg/injection, schedule: Q01DX009 (ip), vehicle: other 101 % of control | dose: 50.0 mg/kg/injection, schedule: Q01DX009 (ip), vehicle: other 97 % of control | dose: 100.0 mg/kg/injection, schedule: Q01DX009 (ip), vehicle: other 102 % of control | dose: 200.0 mg/kg/injection, schedule: Q01DX009 (ip), vehicle: other 104 % of control

Cc1ncc(O)c(C(=O)O)c1C(=O)O
inactive: dose: 17.5 mg/kg/injection, schedule: Q01DX005 (ip), vehicle: Klucel (hydroxypropylcellulose) (HPC) 100 % of control | dose: 35.0 mg/kg/injection, schedule: Q01DX005 (ip), vehicle: Klucel (hydroxypropylcellulose) (HPC) 103 % of control | dose: 70.0 mg/kg/injection, schedule: Q01DX005 (ip), vehicle: Klucel (hydroxypropylcellulose) (HPC) 100 % of control

Cc1ccccc1C(C)C[n+]1cccc(C)c1C (stereo not given)
inactive: [10] 101 % of control | [11] 101 % of control

CC(C)(C)OC(=O)N1CCCC1C1=N/C(=C\c2ccccc2)C(=O)O1 (stereo not given)
inactive: dose: 50.0 mg/kg/injection, schedule: Q01DX005 (ip), vehicle: saline with Tween-80 102 % of control | [12] 111 % of control | dose: 200.0 mg/kg/injection, schedule: Q01DX005 (ip), vehicle: saline with Tween-80 105 % of control

c1ccc2c3c([nH]c2c1)CCc1cncnc1-3
inactive: [4] 91 % of control and 97 % of control | [5] 90 % of control and 103 % of control | [6] 99 % of control and 115 % of control

COc1cc2ccc1NC(=O)N1CCN(CC1)C(=O)Nc1ccc(cc1OC)-c1ccc(c(OC)c1)NC(=O)N1CCN(CC1)C(=O)Nc1ccc-2cc1OC
inactive: [4] 101 % of control | [5] 98 % of control | [6] 102 % of control
